Source: patent US20150105252A1, “SUBSTITUTED PYRAZOLES AS HERBICIDES” (E I DU PONT DE NEMOURS AND COMPANY, priority 2013, published 2015)

Assays:
[1] = system: lambsquarters; assay: Test C preemergence; assay type: in vivo, Chenopodium album; details: preemergence
Summary of the method: (§1)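 Scores of 0 (no effect) to 100 (complete control) were assigned by eye after 13–15 days, comparing treated pots with controls. Soil-applied (preemergence) treatments went onto seeds in loam and sand; foliar (postemergence) treatments onto 1- to 4-leaf plants in peat medium.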

[2] = system: blackgrass; assay: Test C postemergence; assay type: in vivo, Alopecurus myosuroides
Summary of the method: as §1

[3] = system: ryegrass, Italian; assay: Test C postemergence; assay type: in vivo, Lolium multiflorum; details: postemergence
Summary of the method: as §1

[4] = system: wheat; assay: Test C postemergence; assay type: in vivo, Triticum aestivum; details: postemergence
Summary of the method: as §1

[5] = system: galium; assay: Test C postemergence; assay type: in vivo, Galium aparine
Summary of the method: as §1

[6] = system: corn; assay: Test C postemergence; assay type: in vivo, Zea mays
Summary of the method: as §1

[7] = system: foxtail, giant; assay: Test C postemergence; assay type: in vivo, Setaria faberii
Summary of the method: as §1

[8] = system: johnsongrass; assay: Test C postemergence; assay type: in vivo, Sorghum halepense
Summary of the method: as §1

[9] = system: lambsquarters; assay: Test C postemergence; assay type: in vivo, Chenopodium album
Summary of the method: as §1

[10] = system: morningglory; assay: Test C postemergence; assay type: in vivo, Ipomoea coccinea
Summary of the method: as §1

[11] = system: nutsedge, yellow; assay: Test C postemergence; assay type: in vivo, Cyperus esculentus
Summary of the method: as §1

[12] = system: pigweed; assay: Test C postemergence; assay type: in vivo, Amaranthus retroflexus; details: postemergence
Summary of the method: as §1

[13] = system: soybean; assay: Test C postemergence; assay type: in vivo, Glycine max; details: postemergence
Summary of the method: as §1

[14] = system: oilseed rape; assay: Test C postemergence; assay type: in vivo, Brassica napus; details: postemergence
Summary of the method: as §1

[15] = system: waterhemp; assay: Test C postemergence; assay type: in vivo, Amaranthus rudis; details: postemergence
Summary of the method: as §1

[16] = system: kochia; assay: Test C postemergence; assay type: in vivo, Kochia scoparia
Summary of the method: as §1

[17] = system: velvetleaf; assay: Test C postemergence; assay type: in vivo, Abutilon theophrasti; details: postemergence
Summary of the method: as §1

[18] = system: chickweed; assay: Test C postemergence; assay type: in vivo, Stellaria media
Summary of the method: as §1

[19] = Postemergence, 31 g ai/ha, visually evaluated after 13 to 15 days
[20] = postemergence, 62 g ai/ha, scale 0 to 100
[21] = postemergence, 250 g ai/ha, scale 0 to 100 (0 no effect, 100 complete control)
[22] = postemergence, 125 g ai/ha, scale 0 to 100, 0 no effect, 100 complete control
[23] = 250 g ai/ha, scale 0 to 100 (0 no effect, 100 complete control)
[24] = 125 g ai/ha, scale 0 to 100, 0 no effect, 100 complete control

SMILES: CCCc1cc(C(=O)NOCC)nn1Cc1ccnc(C(F)(F)F)c1 [Compound 185]
- Lambsquarters plant response rating ([1]; 31 g ai/ha, visual rating, scale 0 to 100 (0 no effect, 100 complete control), 13 to 15 days): 98
- Lambsquarters plant response rating ([1]; 62 g ai/ha, scale 0 to 100 (0 no effect, 100 complete control), 13 to 15 days): 98
- Plant response rating, Lambsquarters ([1]; 125 g ai/ha, 13 to 15 days, scale 0 to 100, 0 = no effect, 100 = complete control): 100
- Lambsquarters plant response rating ([1]; 250 g ai/ha, scale 0 to 100, 0 is no effect, 100 is complete control): 100
- Plant response rating (scale of 0 to 100 where 0 is no effect and 100 is complete control), Blackgrass [2, 19]: 0
- Blackgrass plant response rating [2, 20]: 0
- Plant response rating, Blackgrass [2, 21]: 5
- Plant response rating, Blackgrass [2, 22]: 5
- Plant response rating, Ryegrass, Italian [3, 23]: 0
- Plant response rating, Ryegrass, Italian [3, 24]: 0
- Plant response rating, Wheat [4, 23]: 10
- Wheat plant response rating ([4]; scale 0 to 100): 5
- Plant response rating (scale of 0 to 100 where 0 is no effect and 100 is complete control), Galium [5, 19]: 40
- Galium plant response rating [5, 20]: 40
- Plant response rating, Galium [5, 21]: 70
- Plant response rating, Galium [5, 22]: 45
- Plant response rating (scale of 0 to 100 where 0 is no effect and 100 is complete control), Corn [6, 19]: 5
- Corn plant response rating [6, 20]: 5
- Plant response rating, Corn [6, 21]: 65
- Plant response rating, Corn [6, 22]: 5
- Plant response rating (scale of 0 to 100 where 0 is no effect and 100 is complete control), Foxtail, Giant [7, 19]: 5
- Foxtail, Giant plant response rating [7, 20]: 5
- Plant response rating, Foxtail, Giant [7, 21]: 5
- Plant response rating, Foxtail, Giant [7, 22]: 10
- Plant response rating (scale of 0 to 100 where 0 is no effect and 100 is complete control), Johnsongrass [8, 19]: 0
- Johnsongrass plant response rating [8, 20]: 0
- Plant response rating, Johnsongrass [8, 21]: 5
- Plant response rating, Johnsongrass [8, 22]: 0
- Plant response rating (scale of 0 to 100 where 0 is no effect and 100 is complete control), Lambsquarters [9, 19]: 70
- Lambsquarters plant response rating [9, 20]: 35
- Plant response rating, Lambsquarters [9, 21]: 65
- Plant response rating, Lambsquarters [9, 22]: 45
- Plant response rating (scale of 0 to 100 where 0 is no effect and 100 is complete control), Morningglory [10, 19]: 40
- Morningglory plant response rating [10, 20]: 45
- Plant response rating, Morningglory [10, 21]: 75
- Plant response rating, Morningglory [10, 22]: 85
- Plant response rating (scale of 0 to 100 where 0 is no effect and 100 is complete control), Nutsedge, Yellow [11, 19]: 0
- Nutsedge, Yellow plant response rating [11, 20]: 0
- Plant response rating, Nutsedge, Yellow [11, 21]: 10
- Plant response rating, Nutsedge, Yellow [11, 22]: 5
- Pigweed plant response rating ([12]; 62 g ai/ha, scale 0 to 100): 50
- Plant response rating, Pigweed [12, 23]: 85
- Plant response rating, Pigweed [12, 24]: 75
- Plant response rating, Soybean [13, 23]: 50
- Soybean plant response rating [13, 24]: 40
- Oilseed Rape plant response rating ([14]; 62 g ai/ha, scale 0 to 100): 40
- Plant response rating, Oilseed Rape [14, 23]: 70
- Plant response rating, Oilseed Rape [14, 24]: 50
- Plant response rating, Waterhemp [15, 23]: 85
- Waterhemp plant response rating ([15]; scale 0 to 100): 35
- Plant response rating (scale of 0 to 100 where 0 is no effect and 100 is complete control), Kochia [16, 19]: 50
- Kochia plant response rating [16, 20]: 60
- Plant response rating, Kochia [16, 21]: 80
- Plant response rating, Kochia [16, 22]: 75
- Plant response rating, Velvetleaf [17, 23]: 35
- Velvetleaf plant response rating ([17]; scale 0 to 100): 25
- Plant response rating (scale of 0 to 100 where 0 is no effect and 100 is complete control), Chickweed [18, 19]: 70
- Chickweed plant response rating [18, 20]: 80
- Plant response rating, Chickweed [18, 21]: 85
- Plant response rating, Chickweed [18, 22]: 85
